Results taken from patent publication US7879835B2 (Korea Research Institute of Chemical Technology, priority 2004, dated 2011).
Read-outs that look alike come from different tables or passages of the source.

Assays:
osteoclasts = test: Inhibitory effect on resorption activity of osteoclast (resorption pit area on calcium phosphate-coated plate); format: cell-based, mice; conditions: compared to control
Experimental: After finishing culture, the plate was washed with distilled water, and 50 μl/well of 5% sodium hypochlorite was added to the plate. The plate was let alone for 5 min, washed again with distilled water to remove the adherent cells, and dried at room temperature. Then, the area of formed resorption pits was calculated by means of Image Pro Plus software (Media Cybernetics Ver. 3.0).

[1] = In vivo pharmacokinetics using female mice (serum concentration, HPLC); conditions: for Half-life: read-out: Half-life (converted); for clearance: read-out: CL (clearance) (converted); for Vd: read-out: Vd (volume of distribution)
Experimental: Female mice each weighing […] were divided into groups of 5 mice each. The mice were anesthetized with ether, catheterized in their femoral artery and vein, respectively, and administered with 0.5 mg/kg body weight of compounds 234 and 274, and 5 mg/kg body weight of compounds 388, 404 and 415, respectively, via intravenous injection. Alternatively, 15 mg/kg body weight of compound 274 and 10 mg/kg body weight of compound 234 were orally administered to the mice.
At 0, 5, 10, 15 and 30 minutes and 1, 2, 4, 6, 9 and 12 hours after the intravenous injection, or at 0, 10, 20 and 40 minutes and 1, 2, 4, 6, 9 and 12 hours after the oral administration, 0.3 ml blood samples were taken from the mice through femoral artery. The blood samples were kept on an ice bath for 30 minutes and centrifuged at 3,000 rpm for 10 minutes to obtain a supernatant (serum). The supernatant samples were stored at −20° C.
Standard solution: Compounds 234, 274, 388, 404 and 415 were respectively dissolved in methanol to a concentration of 1 mg/ml to obtain stock solutions. The stock solutions were diluted with methanol to obtain standard solutions having concentrations of 40, 20, 10, 2, 1, 0.5, 0.2, 0.05 and 0.02 μg/ml, respectively.
Standard calibration curve: A stand calibration curve was prepared by employing calibration concentrations of 0.002, 0.005, 0.02, 0.05, 0.1, 0.2, 1, 2 and 4 μg/ml.
10 μl each of the standard solutions prepared above was added to 100 μl of normal serum sample and diluted 10 times. 250 μl of acetonitrile was added to the resulting dilution and the mixture was centrifuged for 10 minutes to obtain a supernatant. 300 μl of the supernatant was dried by evaporation under a nitrogen atmosphere and reconstituted by adding 50 μl of methanol. 20 μl of the resulting solution was analyzed by HPLC to prepare a standard calibration curve. HPLC was performed with Shimadzu ODS2 column (4.6×250 mm, 5 μm by employing a mixture of methanol/water (90/10 (v/v)) as the mobile phase at a flow rate of 1.2 ml/min, and measuring the absorbance at 240 nm.
Extraction: 100 μl of the serum sample obtained in (4-2-1) was put into a 1 ml microtube and 10 μl of methanol was added thereto. 250 μl of acetonitrile was added to the microtube and the mixture was centrifuged for 10 minutes to obtain a supernatant. 300 μl of the supernatant was dried by evaporation under a nitrogen atmosphere and reconstituted by adding 50 μl of methanol. 20 μl of the resulting solution was analyzed by the HPLC method as above.
Average concentrations of the compounds in the serum samples were plotted in a semi-log scale against the time lapsed after the administration, and the pharmacokinetic parameters were determined as a non-compartment open model by employing WinNonlin® program (Pharsight Corporation).

CO/C=C(/C(=O)OC)c1ccc(Cl)cc1COc1ccc(OCCOC)cc1 [Compound No. 274, (E)-methyl-2-(2-((4-(2-methoxyethoxy)phenoxy)methyl)-4-chlorophenyl)-3-methoxyacrylate]
Reduction (%) of the resorption pit area of osteoclasts (osteoclasts; 0.3 uM): 100% | Reduction (%) of the resorption pit area of osteoclasts (osteoclasts; 1 uM): 100% | Reduction (%) of the resorption pit area of osteoclasts (osteoclasts; 3 uM): 100% | AUC (area under the curve of blood concentration versus time) ([1]; I.V.): 47200 ± 25800 ng·h/mL | AUC (area under the curve of blood concentration versus time) ([1]; Oral): 80600 ± 45400 ng·h/mL | CL (clearance) ([1]; Oral): 7.5 ± 3.4 mL/h | Vd (volume of distribution) ([1]; Oral): 0.0434 ± 0.0468 L/kg | Half-life ([1]; mouse, serum, 15 mg/kg, Oral): 4.2 ± 3.7 h | bioavailability ([1]; mouse, serum, 15 mg/kg, oral versus I.V., read-out: Bioavailability): 8.5% | clearance ([1]; mouse, serum, iv, I.V.): 0.238 mL/min | Half-life ([1]; mouse, serum, iv, I.V.): 3.5 ± 2.3 h | Vd ([1]; mouse, serum, iv, I.V.): 0.0503 ± 0.0098 L/kg

CO/C=C(/C(=O)OC)c1ccccc1COc1cccc(N2CCCCC2)c1 [Compound No. 388, (E)-methyl-2-[2-((3-(piperidin-1-yl)phenoxy)methyl)phenyl]-3-methoxyacrylate]
AUC (area under the curve of blood concentration versus time) ([1]; I.V.): 112600 ± 13000 ng·h/mL | clearance ([1]; mouse, serum, iv, I.V.): 0.0483 mL/min | Half-life ([1]; mouse, serum, iv, I.V.): 7.3 ± 1.2 h | Vd ([1]; mouse, serum, iv, I.V.): 0.0274 ± 0.002 L/kg
